In series [1] the test system is FAM213B and HLA-F. The series is described as follows: Expression-based proteomics (TMT-exp) of compound-treated T cells, FAM213B and HLA-F. Type of series: cell-based, human. As to conditions: 24 h; >3000 total proteins quantified. As for the experimental part: FIG. 7B is a scatter plot representation of protein abundance changes caused by BPK-25 (10 μM, 24 h) in two independent replicate experiments, with decreases in NuRD complex components highlighted in red. FIG. 7C is a heatmap of top proteins with decreased abundance in BPK-25-treated T cells showing that the subset of these proteins in the NuRD complex (asterisks) were largely unaltered by other active compounds and blocked in their degradation by co-treatment with the proteasome inhibitor MG132. […] FIG. 7E is a bar graph […] showing time-dependent reductions in NuRD complex members in human T cells treated with BPK-25 (10 μM). Left, representative western blots. Right, quantification of changes in protein. […] FIG. 7G is a heat map showing the changes in cysteine reactivity for NuRD complex members in human T cells treated with BPK-25 and other active compounds.
Freshly isolated T cells (1.6×10^7 cells, 2×10^6 cells/mL in RPMI media) were treated with compound or DMSO for 24 h, pelleted (600 g, 5 min), and washed with PBS (1×10 mL). The cells were then transferred to an Eppendorf tube in additional PBS (1 mL), pelleted (600 g, 5 min), flash frozen, and kept at −80° C. until further analysis. […]
At individual TMT experiment level, the following filters were applied to remove low-quality peptides: removal of non-unique peptides; removal of half-tryptic peptides; removal of peptides with more than one internal miscleaved site; removal of cysteine-containing peptides; removal of peptides with low (<10,000) sum of reporter ion intensities for control channels, and peptides with high variation between the replicate control channels (coefficient of variance >0.5). R values (compound-treated vs. DMSO-treated) were calculated using the reporter ion intensities of compound and DMSO treated TMT channels for each treatment group. […] Proteins were required to have at least two unique quantified peptides in each experiment and were quantified in at least two independent experiments.

The subject of series [2] is primary human T cells. The series is described as follows: T cell viability by flow cytometry (near-IR LIVE/DEAD stain). The series is classed as cell-based. To be noted: for cytotoxicity: concentration-dependent profiles, at <20 μM. As for the experimental part: FIG. 4A-4D is an overview of a multidimensional screen to identify elaborated electrophilic compounds that suppress T cell activation. FIG. 4A is a workflow for T-cell activation screen. Primary human T cells were treated with a focused library of elaborated electrophilic compounds (10 μM, structures of compounds in FIG. 12), a positive control immunosuppressive compound (DMF, 50 μM), or DMSO under TCR-stimulating conditions in 96-well plates pre-coated with 5 μg/mL αCD3 and 2 μg/mL αCD28 for 24 h. T cell activation was measured using a combination of markers, including IL2 and IFNγ secretion, as well as surface expression of CD25 and CD69. T cell viability was measured by flow cytometry using a Fixable Near-IR LIVE/DEAD™ Cell Stain. Compounds were considered as active hits if they reduced IL2 cytokine production by >65% with <15% reduction in T cell viability in the cytotoxicity assay compared to DMSO control. […] FIG. 4C are structures of active hit compounds selected for follow-up studies, including two acrylamides (BPK-21, BPK-25), two chloroacetamides (EV-3, EV-93) and DMF as a positive control. FIG. 4D are line graphs showing T cell activation and cytotoxicity profiles for selected hit compounds.
Non-tissue culture treated 96-well plates were pre-coated with αCD3 (5 μg/mL) and αCD28 antibodies (2 μg/mL) in PBS (100 μL/well) and left at 4° C. overnight. Freshly isolated T cells were re-suspended in RPMI media supplemented with 10% FBS, L-glutamine (2 mM), penicillin (100 U/mL), and streptomycin ([…]) at 2×10^6 cells/mL. Compound stocks (200×) in DMSO were diluted to 2× stocks in the working RPMI media in another 96-well plate. The pre-coated 96-well treatment plates were washed with PBS ([…]), T cells (100 μL/well, 2×10^5 cells/well) were then added to the wells, followed by the addition of 2× compound stocks in RPMI media (100 μL). The outer wells of the plates were filled with media without cells to avoid the edge effect in the assay. The treatment was done overnight (24 h) at 37° C. in a 5% CO2 containing incubator. Following the treatment, the cells were transferred to a U-bottom 96-well plate and harvested by centrifugation (600 g, 3 min, 4° C.). The supernatants were kept and stored at −80° C. for further cytokine analysis, while the cells were washed with PBS (2×150 μL) prior to staining for flow cytometry analysis.
Following the PBS washes, the cells were stained with fixable near-IR LIVE/DEAD cell stain (Invitrogen) according to manufacturer's instructions. Briefly, one vial of near-IR LIVE/DEAD dye was resuspended in DMSO (50 μL) and diluted with PBS (1:1000). The diluted stain was added to each well (200 μL) and the cells were incubated for 30 min at room temperature in the dark. After this time, the cells were pelleted (600 g, 3 min, 4° C.), washed once with PBS (200 μL/well) and incubated with a freshly made cocktail of antibodies for the appropriate cell surface markers diluted in PBS containing 2% FBS (1:400 antibody dilution).
On the technique in general: Flow cytometry measures light scatter and fluorescence of single cells or particles in a stream.

The results in this text go back to patent US20240131032A1, “AN ACTIVITY-GUIDED MAP OF ELECTROPHILE-CYSTEINE INTERACTIONS IN PRIMARY HUMAN IMMUNE CELLS” (The Scripps Research Institute, priority 2019, published 2024).

For `C=CC(=O)N(Cc1cccc(Cl)c1Cl)c1ccc(Oc2ccccc2)c(C(F)(F)F)c1` [BPK-21], in series [1], the “reductions in FAM213B and HLA-F” value is given as “also affected”. The cytotoxicity entry in series [2] is recorded as “negligible cytotoxicity”. For `C=CC(=O)N(Cc1cccc(Cl)n1)c1ccc(C(=O)Nc2ccccc2)nc1` [BPK-25] the same measures were over 50% and “negligible cytotoxicity”. As for `COC(=O)/C=C/C(=O)OC` [DMF, reference compound], the viability (commonly the share of living cells, or the viability signal relative to a control) in series [2] (electrophilic compounds 10 μM each (DMF 50 μM), 24 h) is over 85%. For `O=C(CCl)N1CCN(S(=O)(=O)c2ccc(-c3ccncc3)cc2)CC1` [EV-3], in series [1], the “reductions in FAM213B and HLA-F” value was “also affected”. Moreover, in series [2], the cytotoxicity entry was “negligible cytotoxicity”.
